Read-outs that look alike come from different tables or passages of the source.
Columns and labels:
[1] = molecular target: Beta Secretase enzyme (BACE1) (Homo sapiens, UniProt P56817); experiment: In vitro enzymatic BACE FRET assay; format: biochemical; conditions: read-out: BACE1 FRET assay IC50
Method: In Vitro Enzymatic BACE FRET (Fluorescence Resonance Energy Transfer) Assay (Enzyme Assay Data in the Example Tables I and II)
The assay buffer used in this screen is 0.05 M acetate, pH 4.2, 10% DMSO final, 100 uM genapol (which is a nonionic detergent, below its Critical Micelle Concentration). […] This assay is effectively started by the addition of FRET substrate (50 nM) and the combination is incubated for one hour. The FRET assay is terminated with by addition of Tris buffer, which raises the pH to neutrality, and the fluorescence is determined. The FRET substrate is a peptide with commercially available fluorophore and quencher, on opposite sides of the BACE cleavage site. Proteolytic cleavage of the FRET substrate releases quenching of fluorescence (excitation […] and […]).

Cathepsin D (Cat D) = molecular target: T1, Cathepsin D (Cat D) (Homo sapiens, UniProt P07339); experiment: In vitro enzymatic Cathepsin D (Cat D) FRET assay; format: biochemical; conditions: read-out: CatD IC50
T1 construct: Recombinant Cat D was expressed in CHO cells; made in house; host or cells: CHO cells
Method: In Vitro Enzymatic Cathepsin D (Cat D) FRET (Fluorescence Resonance Energy Transfer) Assay Recombinant Cat D was expressed in CHO cells. […] The Cat D enzyme (9 nM) is pre-incubated for one hour with inhibitors, typically in about 1 uL of DMSO according to a serial dilution, is added thereto. […] The FRET assay is terminated with by addition of Tris buffer, which raises the pH to neutrality, and the fluorescence is determined. The FRET substrate is a peptide with commercially available fluorophore and quencher, on opposite sides of the BACE cleavage site. The Cat D substrate peptide sequence is based on sequence #1 of Table 1 from Gulnik et al. […] Alternatively, a Cat D assay may also be run according to the procedure described in the article, Characterization of new fluorgenic substrates for the rapid and sensitive assay of cathepsin E and cathepsin D, J. Biochem., 125:1137, 1999. In addition, the cathepsin D and cathepsin E assays are described in PCT publication WO2011069934. This WIPO publication describes BACE inhibitor compounds having an amide linker connecting two aromatic groups with extremely poor cathepsin D and/or cathepsin E inhibitory activity (see Table 2). Where available, the in-vitro Cat D FRET assay data for each of the Examples, conducted by the first procedure, is provided.

[2] = system: Aβ40 in conditioned medium of cells stably expressing Amyloid Precursor Protein (APP); experiment: In vitro BACE cell-based assay (HEK cell assay), Aβ40 sandwich ELISA; conditions: Homo sapiens, HEK293
Method: In Vitro BACE Cell-Based Assay
The cell-based assay measures inhibition or reduction of Aβ40 in conditioned medium of test compound treated cells expressing amyloid precursor protein.
Cells stably expressing Amyloid Precursor Protein (APP) were plated at a density of 40K cells/well in 96 well plates (Costar). The cells were cultivated for 24 hours at 37C. and 5% CO2 in DMEM supplemented with 10% FBS. The test compounds were then added to cells in 10-point dose response concentrations with the starting concentration being either 100 μM or 10 μM. The compounds were diluted from stock solutions in DMSO and the final DMSO concentration of the test compounds on cells was 0.1%. After 24 h of incubation with the test compounds the supernatant conditioned media was collected and the Aβ 40 levels were determined using a sandwich ELISA. The IC50 of the compound was calculated from the percent of control or percent inhibition of Aβ 40 as a function of the concentration of the test compound.
The sandwich ELISA to detect Aβ 40 was performed in 96 well microtiter plates, which were pre-treated with goat anti-rabbit IgG (Pierce). The capture and detecting antibody pair that were used to detect Aβ 40 from cell supernatants were affinity purified pAb40 (Biosource) and biotinylated 6E10 (Signet Labs Inc.), respectively. The optimal concentration for the pAb40 antibody was 3 μg/ml in Superblock/TBS (Pierce) that was supplemented with 0.05% Tween 20 (Sigma). Optimal concentration for the detection antibody 6E10-biotinylated was 0.5 μg/ml in Superblock/TBS (Pierce) that had been supplemented with 2% normal goat serum and 2% normal mouse serum.
Cellular supernatants were incubated with the capture antibody for 3 h at 4° C., followed by 3 wash steps in TBS-tween (0.05%). The detecting antibody incubation was for 2 h at 4° C., again followed by the wash steps as described previously. The final readout of the ELISA is Time-Resolved Fluorescence (counts per minute) using Delfia reagents Streptavidin-Europium and Enhancement solutions (Perkin Elmer) and the Victor 2 multilabel counter (Perkin Elmer).

T1 sequence (P07339 65-412, species assumed): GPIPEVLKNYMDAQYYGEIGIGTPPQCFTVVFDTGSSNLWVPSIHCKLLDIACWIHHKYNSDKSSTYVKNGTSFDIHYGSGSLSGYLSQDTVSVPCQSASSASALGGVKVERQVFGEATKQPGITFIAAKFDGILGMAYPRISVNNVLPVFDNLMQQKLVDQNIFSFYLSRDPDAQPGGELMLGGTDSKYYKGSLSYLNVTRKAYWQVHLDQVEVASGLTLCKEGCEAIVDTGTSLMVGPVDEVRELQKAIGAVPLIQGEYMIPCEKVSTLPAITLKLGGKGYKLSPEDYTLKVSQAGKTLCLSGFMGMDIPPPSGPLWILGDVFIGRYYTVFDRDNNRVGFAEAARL
Chain of Beta Secretase enzyme (BACE1) (P56817 46-501): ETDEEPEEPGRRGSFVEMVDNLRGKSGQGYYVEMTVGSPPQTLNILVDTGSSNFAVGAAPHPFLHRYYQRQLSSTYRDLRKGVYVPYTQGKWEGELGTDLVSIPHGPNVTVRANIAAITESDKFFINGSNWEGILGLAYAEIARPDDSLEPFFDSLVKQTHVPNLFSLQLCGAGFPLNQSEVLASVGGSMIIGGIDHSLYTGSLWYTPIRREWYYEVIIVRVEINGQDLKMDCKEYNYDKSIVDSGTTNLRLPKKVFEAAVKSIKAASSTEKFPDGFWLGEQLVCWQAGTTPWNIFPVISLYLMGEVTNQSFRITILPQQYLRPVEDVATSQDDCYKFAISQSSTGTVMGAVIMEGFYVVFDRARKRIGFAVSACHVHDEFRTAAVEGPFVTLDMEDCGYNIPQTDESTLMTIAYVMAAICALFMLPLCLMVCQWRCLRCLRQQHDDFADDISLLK

Structure (SMILES)	IC50 ([1]; average IC50) [nM]	IC50 (Cathepsin D (Cat D)) [µM]	IC50 ([2]; average IC50, HEK cells) [nM]	IC50 [1] [nM]	IC50 ([2]; Aβ40, 24 h incubation) [nM]	IC50 ([1]; average IC50, enzyme assay) [nM]
C[C@@]1(c2cc(Br)ccc2F)CS(=O)(=O)C2(CCOC2)C(N)=N1 (mixture of isomers) [Example 181, (8R)-10-Amino-8-(5-bromo-2-fluorophenyl)-8-methyl-2-oxa-6-thia-9-azaspiro[4.5]dec-9-ene 6,6-dioxide]	16300	43.3	> 15600	–	–	–
C[C@@]1(c2cc(Nc3nccc4cc(Cl)cnc34)ccc2F)CS(=O)(=O)C2(CCOC2)C(N)=N1 (mixture of isomers) [Example 182, (8R)-10-amino-8-(5-((3-chloro-1,7-naphthyridin-8-yl)amino)-2-fluorophenyl)-8-methyl-2-oxa-6-thia-9-azaspiro[4.5]dec-9-ene 6,6-dioxide]	2.2	63.6	30.6	–	–	–
CC1(C)C(N)=N[C@](C)(c2cc(Nc3nccc4cc(Cl)cnc34)cc(F)c2F)CS1(=O)=O (single isomer, unassigned) [Example 70]	–	164	–	830	5040	–
CC1(C)C(N)=N[C@](C)(c2cc(NC(=O)c3ccc(F)cn3)ccc2F)CS1(=O)=O [Example 18, N-(3-((3R)-5-amino-3,6,6-trimethyl-1,1-dioxido-3,6-dihydro-2H-1,4-thiazin-3-yl)-4-fluorophenyl)-5-fluoro-2-pyridinecarboxamide]	–	> 400	–	1.9	3.7	–
CC1(C)C(N)=N[C@](C)(c2cc(NC(=O)c3ccc(C(F)F)cn3)ccc2F)CS1(=O)=O [Example 20, N-(3-((3R)-5-amino-3,6,6-trimethyl-1,1-dioxido-3,6-dihydro-2H-1,4-thiazin-3-yl)-4-fluorophenyl)-5-(difluoromethyl)-2-pyridinecarboxamide]	–	193	–	2.7	3.9	–
CC1(C)C(N)=N[C@](C)(c2cc(NC(=O)c3cnc(C(F)(F)F)cn3)ccc2F)CS1(=O)=O [Example 21, N-(3-((3R)-5-amino-3,6,6-trimethyl-1,1-dioxido-3,6-dihydro-2H-1,4-thiazin-3-yl)-4-fluorophenyl)-5-(trifluoromethyl)-2-pyrazinecarboxamide]	–	> 400	–	7.4	11	–
CC1(C)C(N)=N[C@](C)(c2cc(Nc3ncnc4cc(C#N)cnc34)ccc2F)C(F)S1(=O)=O (stereo partly drawn) [Example 229, 4-((3-((3R)-5-amino-2-fluoro-3,6,6-trimethyl-1,1-dioxido-3,6-dihydro-2H-1,4-thiazin-3-yl)-4-fluorophenyl)amino)pyrido[3,2-d]pyrimidine-7-carbonitrile]	–	80.7	–	–	–	1.01
NC1=N[C@@](CF)(c2cc(Nc3nccc4cc(Cl)cnc34)ccc2F)CS(=O)(=O)C12CCC2 [Example 244, N-(3-((7R)-9-amino-7-(fluoromethyl)-5,5-dioxido-5-thia-8-azaspiro[3.5]non-8-en-7-yl)-4-fluorophenyl)-3-chloro-1,7-naphthyridin-8-amine]	–	528	–	–	–	3530
COc1ccnc(Oc2ccc(F)c([C@]3(C)CS(=O)(=O)C(C)(C)C(N)=N3)c2)c1 [Example 287, (5R)-5-(2-fluoro-5-((4-methoxy-2-pyridinyl)oxy)phenyl)-2,2,5-trimethyl-5,6-dihydro-2H-1,4-thiazin-3-amine 1,1-dioxide]	–	204	–	–	–	100
CC1(C)C(N)=N[C@](C)(c2cc(Oc3ncccn3)ccc2F)CS1(=O)=O [Example 288, (5R)-5-(2-fluoro-5-(2-pyrimidinyloxy)phenyl)-2,2,5-trimethyl-5,6-dihydro-2H-1,4-thiazin-3-amine 1,1-dioxide]	–	222	–	–	–	125
COc1cnc2c(Oc3ccc(F)c([C@]4(C)CS(=O)(=O)C(C)(C)C(N)=N4)c3)nccc2c1 [Example 305, (5R)-5-(2-fluoro-5-((3-methoxy-1,7-naphthyridin-8-yl)oxy)phenyl)-2,2,5-trimethyl-5,6-dihydro-2H-1,4-thiazin-3-amine 1,1-dioxide]	–	680	–	–	–	2070
